Data taken from ChEMBL document CHEMBL5604063, “ASAP - DENV-2 NS2B-NS3 protease fluorescence dose response” (2024).
Several values for one entry are separate records, joined by “and”; a condition that tells them apart may be missing. Equal entries are not always repeated.

Target: Genome polyprotein (dengue virus type 2, UniProt P29990)
Format: functional, Thailand/16681/1984

Genome polyprotein, sequence (P29990 1346-1475 limits assumed): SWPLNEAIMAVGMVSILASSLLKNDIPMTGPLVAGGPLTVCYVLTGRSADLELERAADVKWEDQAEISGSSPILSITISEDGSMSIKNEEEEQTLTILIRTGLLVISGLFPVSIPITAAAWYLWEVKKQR
Genome polyprotein, sequence (P29990 1476-2093 limits assumed): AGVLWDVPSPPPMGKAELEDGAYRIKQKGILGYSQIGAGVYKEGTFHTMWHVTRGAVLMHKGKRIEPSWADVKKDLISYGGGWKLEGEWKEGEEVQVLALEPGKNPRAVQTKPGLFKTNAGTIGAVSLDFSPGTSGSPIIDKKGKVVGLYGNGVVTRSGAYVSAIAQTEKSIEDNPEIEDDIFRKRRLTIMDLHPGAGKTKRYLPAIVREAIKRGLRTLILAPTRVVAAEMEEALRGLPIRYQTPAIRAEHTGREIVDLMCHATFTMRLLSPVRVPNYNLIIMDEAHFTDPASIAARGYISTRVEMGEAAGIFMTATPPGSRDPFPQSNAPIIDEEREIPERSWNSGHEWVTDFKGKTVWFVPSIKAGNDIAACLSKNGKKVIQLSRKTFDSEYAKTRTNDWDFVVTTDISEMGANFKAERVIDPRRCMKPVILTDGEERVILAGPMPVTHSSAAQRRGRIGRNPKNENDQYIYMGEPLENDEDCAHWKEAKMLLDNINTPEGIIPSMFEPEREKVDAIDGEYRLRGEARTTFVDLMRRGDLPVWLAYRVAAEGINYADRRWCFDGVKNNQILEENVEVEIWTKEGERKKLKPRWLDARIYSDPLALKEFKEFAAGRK

SMILES | IC50
CCN1CCN(c2ccc(NS(=O)(=O)c3ccc(Cl)cc3C(=O)O)cc2)CC1 | > 99.5 µM
COc1ccc(F)cc1-c1ccc(S(=O)(=O)Nc2ccc(Cl)cc2C(=O)O)cc1 | 11.7 µM
CCn1c(=O)c(N2C[C@H]3CCC[C@H]2C3)nc2ccccc21 | > 99.5 µM
O=C(O)c1cc(F)c(F)c(F)c1NS(=O)(=O)c1ccc(Oc2ccccc2Cl)cc1 | 24.5 µM
CCC(=O)N1CCc2ccc(NS(=O)(=O)c3ccc(Cl)cc3C(=O)O)cc21 | > 99.5 µM
O=C(Cn1ccnc(N2CC[C@H](CO)C2)c1=O)NCc1nccs1 | > 99.5 µM
CCn1ccnc(N2C[C@H](c3c[nH]c4ccccc34)[C@H](N3C(=O)c4ccccc4C3=O)C2)c1=O | > 99.5 µM
CC(C)Oc1ccccc1C(=O)N[C@H](C(=O)Nc1cccc(CN)c1)c1ccc(OCc2ccccc2)cc1 | 74.2 µM
NCc1cccc(NC(=O)[C@H](NS(=O)(=O)CC2CCC2)c2ccc(OCc3ccccc3)cc2)c1 | > 99.5 µM
NCc1cccc(NC(=O)[C@H](NC(=O)OCc2ccccc2)c2ccc(Br)cc2F)c1 | 66 µM
NCc1cccc(CNC(=O)c2cc(Cl)cc(NC(=O)OCc3ccccc3)c2)c1 | > 99.5 µM
NCc1cccc(NC(=O)[C@H](NC(=O)OCc2ccccc2)c2cccc(-c3ccc(S(N)(=O)=O)cc3)c2)c1 | > 99.5 µM
Cn1cc(-c2cccc([C@H](NC(=O)OCc3ccccc3)C(=O)Nc3cccc(CN)c3)c2)cn1 | > 99.5 µM
COCc1cc(Cl)ccc1NS(=O)(=O)c1ccc(Oc2ccccc2Cl)cc1 | > 99.5 µM
CCN(C(=O)Cn1ccnc(N2CC[C@H](CO)C2)c1=O)C(C)C | > 99.5 µM
CCn1c(=O)c(N2CC[C@H](c3nccn3C)C2)nc2ccccc21 | > 99.5 µM
Cc1nccn1-c1ccc(NS(=O)(=O)c2ccc(Cl)cc2C(=O)O)cc1F | > 99.5 µM
O=C(O)c1cc(Cl)ccc1S(=O)(=O)Nc1ccc(N2CCCS2(=O)=O)cc1 | > 99.5 µM
CCOc1cccc(-c2ccc(S(=O)(=O)Nc3ccc(Cl)cc3C(=O)O)cc2)c1 | 4.25 µM and 6.13 µM
NCC1(NC(=O)[C@H](NC(=O)OCc2ccccc2)c2ccc(OCc3ccccc3)cc2)CCCCC1 | > 99.5 µM
Cn1ccnc1C(=O)N[C@H](C(=O)Nc1cccc(CN)c1)c1ccc(OCc2ccccc2)cc1 | > 99.5 µM
CCn1c(=O)c(N2C[C@H]3C[C@H]2CS(=O)(=O)C3)nc2ccccc21 | > 99.5 µM
CS(=O)(=O)c1ccc(-c2ccc(S(=O)(=O)Nc3ccc(Cl)cc3C(=O)O)cc2)cc1 | 33.5 µM
NCc1cccc(NC(=O)[C@H](NC(=O)OCc2ccccc2)c2cccc(-c3cncc(F)c3)c2)c1 | > 99.5 µM

SMILES | IC50
CCn1c(=O)c(N2CC[C@H]3[C@H]2[C@H]3C(F)(F)F)nc2ccccc21 | > 99.5 µM
CS(=O)(=O)c1ccc(-c2cccc([C@H](NC(=O)OCc3ccccc3)C(=O)Nc3cccc(CN)c3)c2)cc1 | 40 µM
CCC(C)(C)C(=O)N[C@H](C(=O)Nc1cccc(CN)c1)c1ccc(OCc2ccccc2)cc1 | > 99.5 µM
O=C(O)c1cc(Cl)ccc1NS(=O)(=O)c1ccc(-c2cccnc2)cc1 | 91.3 µM
CCn1c(=O)c(N2CC[C@]3(CCNC3=O)C2)nc2ccccc21 | > 99.5 µM
O=C(O)c1cc(Cl)ccc1S(=O)(=O)NC1CCC(N2CCCCC2=O)CC1 (stereo not given) | > 99.5 µM
Cc1ccc(C(=O)N[C@H](C(=O)Nc2cccc(CN)c2)c2ccc(OCc3ccccc3)cc2)s1 | 97.7 µM
CS(=O)(=O)c1cncc(-c2cccc([C@H](NC(=O)OCc3ccccc3)C(=O)Nc3cccc(CN)c3)c2)c1 | 71.4 µM
CCN1C[C@H]2C[C@@H]1CN2c1nc2ccccc2n(CC)c1=O | > 99.5 µM
Cc1cc(OCc2ccccc2)ccc1NS(=O)(=O)c1ccc(Cl)cc1C(=O)O | 27.1 µM
N#Cc1ccccc1-c1ccc(S(=O)(=O)Nc2ccc(Cl)cc2C(=O)O)cc1 | 25.1 µM
CCn1c(=O)c(N2CCC[C@H]2C(=O)NC2CC2)nc2ccccc21 | > 99.5 µM
NCc1cccc(NC(=O)[C@H](NC(=O)OCc2ccccc2)c2cccc(C3=CCCOC3)c2)c1 | > 99.5 µM
CC(C)[C@@H]1[C@H](C(=O)Nc2cccc(CN)c2)CCN1C(=O)OCc1ccccc1 | > 99.5 µM
NCc1cccc(NC(=O)[C@H](NC(=O)C2CCCCC2)c2ccc(OCc3ccccc3)cc2)c1 | 17.6 µM and 20.7 µM and 12.3 µM
Cn1ncc2cc(C(=O)N3CCC(NC(=O)[C@]4(C)CCC[C@H]4O)CC3)cc(O)c21 | > 99.5 µM
NCc1cccc(NC(=O)[C@H](NC(=O)[C@H]2CCOC2)c2ccc(OCc3ccccc3)cc2)c1 | > 99.5 µM
COc1ccc(NS(=O)(=O)c2ccc(Cl)cc2C(=O)O)cc1OC1CCCC1 | > 99.5 µM
O=C(O)c1cc(Cl)ccc1NS(=O)(=O)c1ccc(-c2cn[nH]c2)cc1 | > 99.5 µM
C[C@]1(C(=O)N[C@H](C(=O)Nc2cccc(CN)c2)c2ccc(OCc3ccccc3)cc2)COc2ccccc2O1 | 52.3 µM
CCn1c(=O)c(N2CC[C@]3(CNC(=O)O3)C2)nc2ccccc21 | > 99.5 µM
CCn1c(=O)c(N2C[C@H]3CCS(=O)(=O)[C@H]3C2)nc2ccccc21 | > 99.5 µM
NCc1cccc(NC(=O)[C@H](NC(=O)c2ccncc2)c2ccc(OCc3ccccc3)cc2)c1 | > 99.5 µM
O=C(O)c1cc(Cl)ccc1S(=O)(=O)Nc1ccc(-c2cccc(F)c2)cc1 | 27 µM

SMILES | IC50
CC(=O)Nc1cccc(-c2ccc(S(=O)(=O)Nc3ccc(Cl)cc3C(=O)O)cc2)c1 | 23.9 µM
NCc1cccc(N(C(=O)CNC(=O)OCc2ccccc2)c2ccc(OCc3ccccc3)cc2)c1 | > 99.5 µM
O=C(O)c1cc(Cl)ccc1S(=O)(=O)NC1CCN(Cc2ccccn2)CC1 | > 99.5 µM
CCn1c(=O)c(N2C[C@H](C)C[C@H]2c2ccccc2)nc2ccccc21 | > 99.5 µM
CCn1c(=O)c(N2C[C@@H]3C[C@]3(CO)C2)nc2ccccc21 | > 99.5 µM
CCn1c(=O)c(N2C[C@]3(CO)C[C@H]2CO3)nc2ccccc21 | > 99.5 µM
COc1ccccc1-c1ccc(S(=O)(=O)Nc2ccc(Cl)cc2C(=O)O)cc1 | 12.8 µM
CC1(NS(=O)(=O)c2ccc(Cl)cc2C(=O)O)CCN(c2ccccc2)CC1 | > 99.5 µM
CCOCC(=O)N[C@H](C(=O)Nc1cccc(CN)c1)c1ccc(OCc2ccccc2)cc1 | > 99.5 µM
CCn1c(=O)c(N2CCC[C@@H]2Cn2cncn2)nc2ccccc21 | > 99.5 µM
CCn1c(=O)c(N2CC[C@H](c3nncs3)C2)nc2ccccc21 | > 99.5 µM
NC[C@H]1C[C@@H](NC(=O)c2cc(Cl)ccc2NS(=O)(=O)c2ccc(Oc3ccccc3Cl)cc2)C1 | > 99.5 µM
O=C(O)c1cc(Cl)ccc1S(=O)(=O)N[C@H]1CCN(Cc2ccccc2)C(=O)C1 | > 99.5 µM
O=C(O)c1cc(Cl)ccc1S(=O)(=O)N[C@H]1CC[C@H]2CN(Cc3ccccc3)C[C@H]2C1 | > 99.5 µM
CCn1c(=O)c(N2CC3(COC3)[C@](F)(CO)C2)nc2ccccc21 | > 99.5 µM
NCc1cccc(NC(=O)c2cc(Cl)ccc2NS(=O)(=O)c2ccc(Oc3ccccc3Cl)cc2)c1 | > 99.5 µM
CCn1c(=O)c(N2C[C@H]3C[C@H]2C(F)(F)C3)nc2ccccc21 | > 99.5 µM
CCn1c(=O)c(N2CC[C@]3(CCSC3)C2)nc2ccccc21 | > 99.5 µM
NS(=O)(=O)c1cccc(-c2ccc(S(=O)(=O)Nc3ccc(Cl)cc3C(=O)O)cc2)c1 | 30.6 µM
CCn1c(=O)c(N2CCC[C@@H]2Cc2cccs2)nc2ccccc21 | > 99.5 µM
CC(=O)N1CCN([C@H]2CC[C@H](NS(=O)(=O)c3ccc(Cl)cc3C(=O)O)CC2)CC1 | > 99.5 µM
CCC1CN(C(=O)c2cc(Cl)ccc2NS(=O)(=O)c2ccc(Oc3ccccc3Cl)cc2)C1 | > 99.5 µM
